Patent US8222031B2, “Three-dimensional skin model” (Fraunhofer-Gesellschaft zur Foerderung der angewandten …, priority 2000, dated 2012)

Experiments:
Format in all cases: cell-based
[1] = system: three-dimensional human skin equivalent; test: Il1α secretion in media supernatants of skin equivalents by ELISA
Description: (§1) Substances samples were used equivalently for testing on the human skin equivalent. The objective was to study any irritating effect of the samples on the full skin model after 48 hours of incubation time via the EZ4U metabolism. The secretion of Il1α and PGE2 was supposed to be determined in the media supernatants after 24 hours and after 48 hours by ELISA. Different concentrations of SDS were also run as a reference substance. Finally, all tested skin equivalents were fixed, and the morphological structure was tested and evaluated with stained paraffin sections.
(§2) The skin equivalents each were prepared in a 6-well with 1 ml of medium (KBM without hEGF, without BPE, and with 1.8 mM CaCl2). The samples were incubated on the surface of the corresponding skin models according to the following schedule:
(§3) Day 1: Application of 3 μl substance in the morning and in the afternoon.
Day 2: Media replacement and freezing of media supernatants for Il1α und PGE2 determination. […]
(§4) The Il1α and PGE2 content in the media supernatants was determined after 24 hours and 48 hours of incubation of the samples using commercially available ELISA test kits and following their instructions.
The induced secretion of cytokine Il1α was quantified by ELISA first after 24 hours and then after a subsequent, additional incubation for 24 hours with test substances in the media supernatants of the equivalents. […]

[2] = system: three-dimensional human skin equivalent; test: PGE2 synthesis in media supernatants of skin equivalents by ELISA
Description: as §1, §2, §3
Day 2: Media replacement and freezing of media supernatants for Il1α und PGE2 determination. Treatment with 3 μl substance in the morning and in the afternoon.
Day 3: Freezing of media supernatants for Il1α und PGE2 determination. Determination of cell metabolism in EZ4U test over a period of 2 hours. Fixation of slides and preparation of stained paraffin sections for histological evaluation.
as §4
The synthesis of the PGE2 inflammatory mediator was quantitatively determined by ELISA in the skin model after a first incubation for 24 hours and subsequent second incubation for 24 hours with test substances in the media supernatants of the equivalents. Samples 186-355 as well as different concentrations of SDS were used as test substances.

[3] = system: three-dimensional human skin equivalent; test: EZ4U test: cell metabolism (cytotoxicity) of skin equivalents
Description: as §1
The skin equivalents each were prepared in a 6-well with 1 ml of medium (KBM without hEGF, without BPE, and with 1.8 mM CaCl2). The samples were incubated on the surface of the corresponding skin models according to the following schedule: […]
The EZ4U test was performed as followed: After 48 hours of incubation, the cell metabolism of the individual skin equivalents was determined photometrically using a vital stain (tetrazolium derivative). […] Turnover kinetics of the negative controls, positive controls, and the equivalents treated with the samples were recorded over a period of 2 hours at 450 nm (with a reference wavelength of 620 nm). […] Both Ec50 and Et50 were determined for SDS. Et50 was determined according to different exposure times from 1% SDS (3 sec, 30 sec, 60 sec, 5 min, 15 min). […]

- Il1α secretion, maximum ([1]; 1% SDS, first 24 h incubation): more than 100 pg/ml per skin equivalent
- Il1α secretion after the second incubation ([1]; SDS, second 24 h incubation): remain overall elevated
- PGE2 synthesis ([2]; 1% SDS, after the first 24 hours): ≥ 4000 pg/ml per skin equivalent
- PGE2 synthesis after the second 24-hour incubation ([2]; SDS, second 24-hour incubation): practically unchanged
- PGE2 synthesis ([2]; up to an SDS concentration of 0.5%): almost unchanged low level
Compound: CCCCCCCCCCCCOS(=O)(=O)[O-].[Na+] [SDS]
- Change (in percent) of cell metabolism after 48 hours of incubation, in relation to untreated control (100%) ([3]; AST-2000, SDS 0.73% (Ec50 from dose/effect curve)): 50%
- Ec50 (concentration that causes 50% cell damage; irritation threshold) ([3]; SDS reference, dose/effect curve): 0.73%
